According to patent publication US5296591A, “Trifluoromethylketone derivatives, processes for preparation thereof and use thereof” (Fujisawa Pharmaceutical Co., Ltd., priority 1990, dated 1994):
Read-outs that look alike come from different tables or passages of the source.

How the values were obtained:
[1] = target: T1, human sputum elastase (HSE) (Homo sapiens, UniProt P08246); experiment: Protease inhibition assay (in vitro), human sputum elastase; type: biochemical; settings: substrate methoxysuccinyl-(Ala)2-Pro-Val-p-nitroanilide, 30 min, room temperature, pH 7.5
T1 construct: HSE was obtained from Elastin Products Company Inc., Mo., U.S.A; purchased Elastin Products Company Inc; host or cells: human sputum (from the enzyme's name)
T1 sequence (P08246 30-267): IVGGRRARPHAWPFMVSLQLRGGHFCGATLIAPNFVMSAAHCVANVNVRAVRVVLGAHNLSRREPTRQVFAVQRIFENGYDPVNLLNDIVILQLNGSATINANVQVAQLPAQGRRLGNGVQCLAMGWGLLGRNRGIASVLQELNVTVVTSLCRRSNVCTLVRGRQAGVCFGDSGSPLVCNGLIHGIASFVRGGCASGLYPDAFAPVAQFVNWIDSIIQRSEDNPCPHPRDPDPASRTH
Description: (§1) A buffer used throughout the assay was 0.1M HEPES (4-(2-hydroxyethyl)-1-piperazineethanesulfonic acid) containing 0.5M NaCl, pH 7.5. Twenty-five microliters of 2 mM methoxysuccinyl-(Ala)2 -Pro-Val-p-nitroanilide (100 mM of dimethyl sulfoxide solution were diluted in the buffer) and 50 μl of sample (10 μl of sample in organic solvent was diluted 5-fold in the buffer) were mixed in wells of 96 well-microliter plate. An absorbance of the mixture in wavelength at 415 nm was measured by a microplate reader (Corona Electric Co., Ibaraki, Japan). After the measurement, 25 μl of 6 μg/ml human sputum elastase (HSE) was added and the mixture was allowed to stand for 30 minutes at room temperature. Then, the absorbance at 415 nm was measured. Percent inhibition by drug was determined by 100×(1-"r" inhibitor present/"r" inhibitor absent), where "r" is absorbance after 30 minutes incubation minus absorbance before enzyme addition. Effect of inhibitors against porcine pancreas elastase (Type IV, 5 μg/ml final) was assayed similarly using N-succinyl-(Ala)3 -p-nitroanilide. HSE was obtained from Elastin Products Company Inc., Mo., U.S.A. All other substrates and protease were purchased from Sigma Chemicals Co.

[2] = target: T2, porcine pancreas elastase (Type IV) (Sus scrofa, UniProt P00772); experiment: Protease inhibition assay (in vitro), porcine pancreas elastase; type: biochemical; settings: substrate N-succinyl-(Ala)3-p-nitroanilide, enzyme 5 μg/ml final
T2 construct: purchased Sigma Chemicals Co; host or cells: porcine pancreas (from the enzyme's name)
Description: as §1

[3] = system: human sputum elastase-induced lung hemorrhage in hamsters; experiment: Elastase-induced pulmonary damage (lung hemorrhage) in hamsters; type: in vivo, hamster; settings: 5 min predose; for Hemorrhage (OD541 nm): BAL hemoglobin 3 h after elastase; for ED50 elastase-induced lung hemorrhage: intratracheal
Description: Hamsters under pentobarbital anesthesia were used. Saline or saline-containing human sputum elastase was instilled intratracheally via a small incision in the ventral neck region using 1-ml syringe with a 27-gauge needle. After 3 hours, animals were sacrificed by CO2 asphyxiation, each animal's trachea was reexposed. The lungs were then laveged using a 2.5-ml aliquot of saline and then withdrawing the saline, yielding a final volume of approximately 1.5 ml bronchoalveolar lavage (BAC) fluid from each animal.
The cells of BAL fluid were collected by centrifugation and were then diluted with distilled water to disrupt, and the hemoglobin contents determined spectrophotometrically at 541 nm.
Test drugs were dissolved in saline or methyl cellulose, and instilled intratracheally in the same manner as used to instill elastase, at 5 minutes before instillation of elastase.

[4] = read-out: IC50 Porcine pancreas elastase

T2 sequence (P00772 27-266): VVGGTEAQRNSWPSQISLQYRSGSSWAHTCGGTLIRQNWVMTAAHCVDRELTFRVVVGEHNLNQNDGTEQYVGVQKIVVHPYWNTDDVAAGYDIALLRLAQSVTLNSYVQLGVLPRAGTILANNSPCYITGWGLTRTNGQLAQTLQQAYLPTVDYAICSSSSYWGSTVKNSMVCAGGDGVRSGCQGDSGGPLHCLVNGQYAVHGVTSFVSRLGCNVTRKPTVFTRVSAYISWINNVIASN

Molecule | IC50 [1] | IC50 [2, 4] | % inhibition of elastase-induced lung hemorrhage ([3]; 1 μg/site intratracheal) | Hemorrhage (OD541 nm) ([3]; 1 μg/site intratracheal) | % inhibition of elastase-induced lung hemorrhage ([3]; 10 μg/site intratracheal) | Hemorrhage (OD541 nm) ([3]; 10 μg/site intratracheal) | % inhibition of elastase-induced lung hemorrhage ([3]; 100 μg/site intratracheal) | Hemorrhage (OD541 nm) ([3]; 100 μg/site intratracheal) | ED50 elastase-induced lung hemorrhage [3] | IC50 ([2]; IC50 Porcine pancreas elastase)
CC(C)C(NC(=O)[C@@H]1CCCN1C(=O)[C@@H](NC(=O)c1ccc(C(=O)NCC(=O)O)cc1)C(C)C)C(=O)C(F)(F)F (mixture of isomers) [Example 13, 3(RS)-[[4-(carboxymethylaminocarbonyl)phenylcarbonyl]-L-valyl-L-prolyl]amino-1,1,1-trifluoro-4-methyl-2-oxopentane] | 720 nM |  | 21.6% | 11.63 ± 1.99 OD541 nm | 74.5% | 4.217 ± 1.02 OD541 nm | 100.0% | 0.6384 ± 0.222 OD541 nm | 3.0 μg/site | 3300 nM
CC(C)C(NC(=O)[C@@H]1CCCN1C(=O)[C@@H](NC(=O)c1ccc(C(=O)NCCCC(=O)OCC(=O)c2ccccc2)cc1)C(C)C)C(=O)C(F)(F)F (mixture of isomers) [Example 3, 3(RS)-[[4-[(3-Benzoylmethoxycarbonyl)propylaminocarbonyl]phenylcarbonyl]-L-valyl-L-prolyl]amino-1,1,1-trifluoro-4-methyl-2-oxopentane] | 980 nM | 8700 nM |  |  |  |  |  |  |  | 
CC(C)C(NC(=O)[C@@H]1CCCN1C(=O)[C@@H](NC(=O)c1ccc(C(=O)NN2CCOCC2)cc1)C(C)C)C(=O)C(F)(F)F (mixture of isomers) [Example 4, 3(RS)-[[4-[(4-Morpholino)aminocarbonyl]-phenylcarbonyl]-L-valyl-L-prolyl]amino-1,1,1-trifluoro-4-methyl-2-oxopentane] | 1400 nM | 2900 nM |  |  |  |  |  |  |  | 
CC(C)C(NC(=O)[C@@H]1CCCN1C(=O)[C@@H](NC(=O)c1ccc(C(=O)N[C@H](Cc2ccccc2)C(=O)OCc2ccccc2)cc1)C(C)C)C(=O)C(F)(F)F (mixture of isomers) [Example 8, 3(RS)-[[4-[[(1(R)-Benzyloxycarbonyl)-2-phenyl]ethylaminocarbonyl]phenylcarbonyl]-L-valyl-L-prolyl]amino-1,1,1-trifluro-4-methyl-2-oxopentane] | 870 nM | 16000 nM |  |  |  |  |  |  |  | 
CC(C)C(NC(=O)[C@@H]1CCCN1C(=O)[C@@H](NC(=O)c1ccc(C(=O)NCC(=O)O)cc1)C(C)C)C(=O)C(F)(F)F (single isomer, unassigned) [Example 15, 3(R or S)-[[4-(Carboxymethylaminocarbonyl)phenylcarbonyl]-L-valyl-L-prolyl]amino-1,1,1-trifluoro-2-oxo-4-methylpentane] | 610 nM |  |  |  |  |  |  |  |  | 2000 nM
CC(C)C(NC(=O)[C@@H]1CCCN1C(=O)[C@@H](NC(=O)c1ccc(C(=O)NCC(=O)O)cc1)C(C)C)C(=O)C(F)(F)F (single isomer, unassigned) [Example 16, 3(R or S)-[[4-(Carboxymethylaminocarbonyl)phenylcarbonyl]-L-valyl-L-prolyl]amino-1,1,1-trifluoro-2-oxo-4-methylpentane] | 7100 nM |  |  |  |  |  |  |  |  | 30000 nM

Second part, led by results:

IC50 [1] | IC50 [2, 4] | Molecule | % inhibition of elastase-induced lung hemorrhage ([3]; 1 μg/site intratracheal) | Hemorrhage (OD541 nm) ([3]; 1 μg/site intratracheal) | % inhibition of elastase-induced lung hemorrhage ([3]; 10 μg/site intratracheal) | Hemorrhage (OD541 nm) ([3]; 10 μg/site intratracheal) | % inhibition of elastase-induced lung hemorrhage ([3]; 100 μg/site intratracheal) | Hemorrhage (OD541 nm) ([3]; 100 μg/site intratracheal) | ED50 elastase-induced lung hemorrhage [3] | IC50 ([2]; IC50 Porcine pancreas elastase)
810 nM | 2400 nM | 3(RS)-[[4-(Carboxymethylaminocarbonyl)phenylaminocarbonyl]-L-valyl-L-prolyl] amino-1,1,1-trifluoro-2-oxo-4-methylpentane [Example 23] | 16.0% | 9.435 ± 0.941 OD541 nm | 75.6% | 3.412 ± 1.31 OD541 nm | 102.1% | 0.7258 ± 0.303 OD541 nm | 3.2 μg/site | 
890 nM | 2400 nM | CC(C)C(NC(=O)[C@@H]1CCCN1C(=O)[C@@H](NC(=O)c1ccc(C(=O)NCCCC(=O)O)cc1)C(C)C)C(=O)C(F)(F)F (mixture of isomers) [Example 20, 3(RS)-[[4-[(3-carboxypropyl)aminocarbonyl]phenylcarbonyl]-L-valyl-L-prolyl]amino-1,1,1-trifluoro-4-methyl-2-oxopentane] | 16.1% | 10.94 ± 1.35 OD541 nm | 86.0% | 2.522 ± 0.803 OD541 nm | 104.7% | 0.2680 ± 0.050 OD541 nm | 2.5 μg/site | 
870 nM | 9500 nM | CC(C)C(NC(=O)[C@@H]1CCCN1C(=O)[C@@H](NC(=O)c1ccc(C(=O)N[C@@H](Cc2ccccc2)C(=O)OCc2ccccc2)cc1)C(C)C)C(=O)C(F)(F)F (mixture of isomers) [Example 9, 3(RS)-[[4-[[(1(S)-Benzyloxycarbonyl)-2-phenyl]ethylaminocarbonyl]phenylcarbonyl]-L-valyl-L-prolyl]amino-1,1,1-trifluoro-4-methyl-2-oxopentane] |  |  |  |  |  |  |  | 
1200 nM | 3700 nM | CC(C)C(NC(=O)[C@@H]1CCCN1C(=O)[C@@H](NC(=O)c1ccc(C(=O)NCCN2CCOCC2)cc1)C(C)C)C(=O)C(F)(F)F.Cl (mixture of isomers) [Example 21, 3(RS)-[[4-[[2-(4-morpholino)ethyl]aminocarbonyl]phenylcarbonyl]-L-valyl-L-prolyl]amino-1,1,1-trifluoro-4-methyl-2-oxopentane hydrochloride] | 13.6% | 12.76 ± 1.11 OD541 nm | 66.3% | 5.372 ± 2.06 OD541 nm | 100.0% | 0.6476 ± 0.129 OD541 nm | 4.5 μg/site | 
2400 nM | 16000 nM | CC(C)C(NC(=O)CN(C(=O)[C@@H](NC(=O)c1ccc(C(=O)NCC(=O)O)cc1)C(C)C)C1Cc2ccccc2C1)C(=O)C(F)(F)F (mixture of isomers) [Example 27, 3(RS)-[[4-(carboxymethylaminocarbonyl)phenylcarbonyl]-L-valyl-N-(2-indanyl)glycyl]-amino-1,1,1-trifluoro-4-methyl-2-oxopentane] | 24.8% | 10.68 ± 1.25 OD541 nm | 66.9% | 4.878 ± 0.917 OD541 nm | 99.8% | 0.3451 ± 0.084 OD541 nm | 3.7 μg/site | 
2400 nM | 19000 nM | CC(C)C(NC(=O)CN(C(=O)[C@@H](NC(=O)c1ccc(C(=O)NCCN2CCOCC2)cc1)C(C)C)C1Cc2ccccc2C1)C(=O)C(F)(F)F (mixture of isomers) [Example 29, 3(RS)-[[4-[[2-(4-morpholino)ethyl]aminocarbonyl]phenylcarbonyl]-L-valyl-N-(2-indanyl)glycyl]amino-1,1,1-trifluoro-4-methyl-2-oxopentane] | 14.9% | 12.05 ± 1.95 OD541 nm | 43.2% | 8.155 ± 1.76 OD541 nm | 69.4% | 4.545 ± 1.49 OD541 nm | 17.9 μg/site | 
